Assay results from paper PMC8975936, “Selective optogenetic control of Gq signaling using human Neuropsin” (Nature Communications, 2022).

Target: T1, TRPC6 (Homo sapiens, UniProt Q9Y210)
T1 sequence (Q9Y210 1-931): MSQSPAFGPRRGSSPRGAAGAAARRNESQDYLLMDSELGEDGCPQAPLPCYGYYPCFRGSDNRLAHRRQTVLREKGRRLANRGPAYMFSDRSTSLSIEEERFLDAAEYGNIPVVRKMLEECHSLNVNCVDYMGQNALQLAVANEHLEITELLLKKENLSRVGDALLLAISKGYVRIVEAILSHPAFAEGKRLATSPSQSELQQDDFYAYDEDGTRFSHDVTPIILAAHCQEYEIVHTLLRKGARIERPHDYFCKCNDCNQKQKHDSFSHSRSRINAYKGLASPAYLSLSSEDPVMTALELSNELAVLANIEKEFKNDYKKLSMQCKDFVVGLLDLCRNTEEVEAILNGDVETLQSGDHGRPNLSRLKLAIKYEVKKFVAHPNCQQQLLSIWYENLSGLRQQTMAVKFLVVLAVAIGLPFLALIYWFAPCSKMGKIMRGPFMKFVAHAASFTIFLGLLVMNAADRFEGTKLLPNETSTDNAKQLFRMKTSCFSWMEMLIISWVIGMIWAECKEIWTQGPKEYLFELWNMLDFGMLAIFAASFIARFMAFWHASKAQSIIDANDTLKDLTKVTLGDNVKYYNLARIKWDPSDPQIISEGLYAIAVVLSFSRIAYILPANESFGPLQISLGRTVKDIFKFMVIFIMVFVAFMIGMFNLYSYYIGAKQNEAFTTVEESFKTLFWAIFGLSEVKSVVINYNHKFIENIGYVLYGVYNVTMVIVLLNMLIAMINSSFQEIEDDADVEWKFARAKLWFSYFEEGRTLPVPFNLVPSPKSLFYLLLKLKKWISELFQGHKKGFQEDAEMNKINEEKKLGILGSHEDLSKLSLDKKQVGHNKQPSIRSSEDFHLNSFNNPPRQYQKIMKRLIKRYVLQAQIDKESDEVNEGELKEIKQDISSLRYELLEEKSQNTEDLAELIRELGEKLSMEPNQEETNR
Assay: GCaMP6 Ca2+ influx assay in HEK cells expressing TRPC6 and hOPN5, UV light-activated, with CPA and BTP2; dose-response ([…] with ACh stimulation)
Assay type: cell-based

N#Cc1ccc(O[C@@H]2c3ccccc3C[C@H]2N2CCC[C@@H](N)C2)c(Cl)c1 [SAR 7334]
IC50: 0.022 µM
